Read-outs that look alike come from different tables or passages of the source.
Molecular target: T1, Human-Renin (Homo sapiens, UniProt P00797)
T1 sequence (P00797 67-406): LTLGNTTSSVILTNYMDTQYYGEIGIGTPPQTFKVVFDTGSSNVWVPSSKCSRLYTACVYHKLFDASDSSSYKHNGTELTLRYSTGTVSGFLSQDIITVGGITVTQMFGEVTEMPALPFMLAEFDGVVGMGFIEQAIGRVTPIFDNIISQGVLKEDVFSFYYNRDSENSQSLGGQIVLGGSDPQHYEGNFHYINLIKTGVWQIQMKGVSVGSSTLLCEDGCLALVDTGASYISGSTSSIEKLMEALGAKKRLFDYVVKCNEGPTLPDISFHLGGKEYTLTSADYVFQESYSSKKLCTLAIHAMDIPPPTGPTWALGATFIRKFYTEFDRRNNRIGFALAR
Assay: In vitro test with pure human renin (angiotensin I production from human tetradecapeptide renin substrate, measured by RIA)
Format: biochemical
Procedure: In vitro-Test mit reinem Human-Renin
Der Test wird in Eppendorf Röhrchen durchgeführt. Die Inkubationsmischung besteht aus (1) 100 µl Human-Renin in Puffer A (0,1M Natriumphosphatlösung, pH 7,4, enthaltend 0,1% Rinderserumalbumin, 0,1 % Natriumazid und 1 mM Aethylendiamintetraessigsäure), genügend für eine Renin-Aktivität von 2-3 ng Angiotensin I/ ml/Std.; (2) 145 µl Puffer A; (3) 30 µl von 10 µM humanem Tetradekapeptid-Reninsubstrat (hTD) in 10 mM Salzsäure; (4) 15 µl Dimethylsulfoxid mit bzw. ohne Hemmer und (5) 10 µl einer 0,03 molaren Lösung von Hydroxychinolinsulfat in Wasser.
Die Proben werden drei Stunden bei 37°C bzw. 4°C in Triplikaten inkubiert. 2 x 100 µl Proben pro Versuchsröhrchen werden dann verwendet, um die Produktion von Angiotensin I via RIA (standard radioimmunoassay; Clinical Assay solid phase kit) zu messen. Kreuzreaktivitäten der verwendeten Antikörper im RIA sind: Angiotensin I 100 %; Angiotensin II 0,0013 %; hTD (Angiotensin I-Val-Ile-His-Ser-OH) 0,09 %. Die Produktion von Angiotensin I wird durch die Differenz zwischen dem Versuch bei 37°C und demjenigen bei 4°C bestimmt.
Folgende Kontrollen werden mitgeführt: • (a) Inkubation von hTD-Proben ohne Renin und ohne Hemmer bei 37°C und 4°C. Die Differenz zwischen diesen beiden Werten ergibt den Grundwert der Angiotensin I-Produktion. • (b) Inkubation von hTD-Proben mit Renin, jedoch ohne Hemmer bei 37°C und 4°C. Die Differenz zwischen diesen Werten ergibt den Maximalwert der Angiotensin I-Produktion.
In jeder Probe wird von der ermittelten Angiotensin I-Produktion der Grundwert der Angiotensin I-Produktion abgezogen. Die Differenz zwischen dem Maximalwert und dem Grundwert ergibt den Wert der maximalen Substrathydrolyse (=100%) durch Renin.
Die Resultate werden als IC₅₀-Werte angegeben, welche diejenige Konzentration des Hemmers bezeichnen, bei welcher die enzymatische Aktivität um 50% gehemmt wird. Die IC₅₀-Werte werden aus einer linearen Regressionskurve aus einem logit-log plot ermittelt.

[1] = pure human renin, substrate hTD, pH 7,4, incubation 3 h at 37°C vs 4°C, angiotensin I by RIA, IC50 from logit-log plot, read-out: IC₅₀-Werte

IC50 [1] | SMILES | IC50
2.6 nM | CC(C)(C)OC(=O)N[C@@H](Cc1ccccc1)C(=O)N[C@@H](Cc1c[nH]cn1)C(=O)N[C@@H](CC1CCCCC1)C(O)CC1CCCCC1 (single isomer, unassigned) [E] | 
 | CC(C)(C)OC(=O)N1CCC[C@@H]1C(=O)N[C@@H](Cc1ccccc1)C(=O)N[C@@H](Cc1c[nH]cn1)C(=O)N[C@@H](CC1CCCCC1)C(O)CC1CCCCC1 (single isomer, unassigned) [F] | 1 nM
0.2 nM | C=C[C@H](CC)C[C@H](O)[C@H](CC1CCCCC1)NC(=O)[C@H](Cc1c[nH]cn1)NC(=O)[C@H](Cc1ccccc1)NC(=O)[C@H]1CCCN1C(=O)OC(C)(C)C [A, t-Butyl (R)-2-[[(S)-α-[[(S)-1-[[(1S,2S,4R)-1-(cyclohexylmethyl)-2-hydroxy-4-äthyl-5-hexenyl]carbamoyl]-2-imidazol-4-yläthyl]carbamoyl]phenäthyl]carbamoyl]-1-pyrrolidincarboxylat] | 
1 nM | CCC(CC)C[C@H](O)[C@H](CC1CCCCC1)NC(=O)[C@H](Cc1c[nH]cn1)NC(=O)[C@H](Cc1ccccc1)NC(=O)[C@H]1CCCN1C(=O)OC(C)(C)C [B, t-Butyl (R)-2-[[(S)-α-[[(S)-1-[[(1S,2S)-1-(cyclohexylmethyl)-2-hydroxy-4-äthylhexyl]carbamoyl]-2-imidazol-4-yläthyl]carbamoyl]phenäthyl]carbamoyl]-1-pyrrolidincarboxylat] | 
4.2 nM | C=C[C@H](CC)C[C@H](O)[C@H](CC1CCCCC1)NC(=O)[C@H](Cc1c[nH]cn1)NC(=O)[C@@H](CC(=O)C(C)(C)C)Cc1ccccc1 [C, (S)-N-[(1S,2S,4R)-1-(Cyclohexylmethyl)-4-äthyl-2-hydroxy-5-hexenyl]-α-[(R)-α-(3,3-dimethyl-2-oxobutyl)hydrocinnamamido]imidazol-4-propionamid] | 
1 nM | C=C[C@H](CC)C[C@H](O)[C@H](CC1CCCCC1)NC(=O)[C@H](Cc1cnc[nH]1)NC(=O)[C@H](Cc1ccccc1)CS(=O)(=O)C(C)(C)C [D, (S)-α-[(S)-α-[(t-Butylsulfonyl)methyl]hydrocinnamamido]-N-[(1S,2S,4R)-1-(cyclohexylmethyl)-4-äthyl-2-hydroxy-5-hexenyl]imidazol-5-propionamid] | 
5 nM | CCC(F)(CC)C[C@H](O)[C@H](CC1CCCCC1)NC(=O)[C@H](Cc1c[nH]cn1)NC(=O)[C@@H](CC(=O)C(C)(C)C)Cc1ccccc1 [G, (S)-N-[(1S,2S)-1-(Cyclohexylmethyl)-4-äthyl-4-fluor-2-hydroxyhexyl]-α-[(R)-α-(3,3-dimethyl-2-oxobutyl)hydrocinnamamido]imidazol-4-propionamid] | 
